From the supplement of paper PMC10307832

Key:
Assay in all cases: relative viability (nuclei count vs DMSO), 5 days (fraction); higher = more cells survive
ABC-1 = test system: ABC-1
Procedure, shortened: (§1)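 A single step with final 0.05% Triton X-100, 1% formaldehyde and 1 ug/ml Hoechst fixed the cells and stained nuclei 5 days after treatment. Lung cancer cell lines in 1536-well plates had been treated by pin tool the day after seeding with one drug alone or a fixed anchor-drug dose plus five library-drug doses (not always all listed) in √10 steps, and nuclei were counted on 4× images. Relative viability is the ratio of nuclei in treated wells to nuclei in vehicle wells, taken as the median of duplicate plates.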

BEN = test system: BEN
Procedure, shortened: as §1

EPLC-272H = test system: EPLC-272H
Procedure, shortened: as §1

HCC-827 = test system: HCC-827
Procedure, shortened: as §1

HOP-62 = test system: HOP-62
Procedure, shortened: as §1

LU99A = test system: LU99A
Procedure, shortened: as §1

NCI-H1355 = test system: NCI-H1355
Procedure, shortened: as §1

NCI-H1666 = test system: NCI-H1666
Procedure, shortened: as §1

NCI-H1792 = test system: NCI-H1792
Procedure, shortened: as §1

NCI-H1975 = test system: NCI-H1975
Procedure, shortened: as §1

NCI-H2170 = test system: NCI-H2170
Procedure, shortened: as §1

NCI-H23 = test system: NCI-H23
Procedure, shortened: as §1

NCI-H2405 = test system: NCI-H2405
Procedure, shortened: as §1

NCI-H3122 = test system: NCI-H3122
Procedure, shortened: as §1

NCI-H322M = test system: NCI-H322M
Procedure, shortened: as §1

NCI-H358 = test system: NCI-H358
Procedure, shortened: as §1

NCI-H520 = test system: NCI-H520
Procedure, shortened: as §1

NCI-H596 = test system: NCI-H596
Procedure, shortened: as §1

NCI-H647 = test system: NCI-H647
Procedure, shortened: as §1

NCI-H727 = test system: NCI-H727
Procedure, shortened: as §1

NCI-H838 = test system: NCI-H838
Procedure, shortened: as §1

PC-14 = test system: PC-14
Procedure, shortened: as §1

SW 900 = test system: SW 900
Procedure, shortened: as §1

UMC-11 = test system: UMC-11
Procedure, shortened: as §1

Q: What does the source list for CCCCCCCCCCCC1=C(O)C(=O)C=C(O)C1=O [Embelin] + O=C(c1cc(Cc2n[nH]c(=O)c3ccccc23)ccc1F)N1CCN(C(=O)C2CC2)CC1 [Olaparib] (partner 8 µM)?
A: relative viability (ABC-1; first compound 0.08 µM): 0.847; relative viability (ABC-1; first compound 0.8 µM): 0.988; relative viability (ABC-1; first compound 2.53 µM): 0.805; relative viability (ABC-1; first compound 8 µM): 0.871; relative viability (BEN; first compound 0.08 µM): 1.15; relative viability (BEN; first compound 0.8 µM): 1.37; relative viability (BEN; first compound 2.53 µM): 1.13; relative viability (BEN; first compound 8 µM): 1.22; relative viability (EPLC-272H; first compound 0.08 µM): 0.845; relative viability (EPLC-272H; first compound 0.8 µM): 0.924; relative viability (EPLC-272H; first compound 2.53 µM): 0.752; relative viability (EPLC-272H; first compound 8 µM): 1.14; relative viability (HCC-827; first compound 0.08 µM): 0.634; relative viability (HCC-827; first compound 0.8 µM): 0.648; relative viability (HCC-827; first compound 2.53 µM): 0.701; relative viability (HCC-827; first compound 8 µM): 0.715; relative viability (HOP-62; first compound 0.08 µM): 0.29; relative viability (HOP-62; first compound 0.8 µM): 0.253; relative viability (HOP-62; first compound 2.53 µM): 0.354; relative viability (HOP-62; first compound 8 µM): 0.451; relative viability (LU99A; first compound 0.08 µM): 0.293; relative viability (LU99A; first compound 0.8 µM): 0.218; relative viability (LU99A; first compound 2.53 µM): 0.281; relative viability (LU99A; first compound 8 µM): 0.241; relative viability (NCI-H1355; first compound 0.08 µM): 0.73; relative viability (NCI-H1355; first compound 0.8 µM): 0.675; relative viability (NCI-H1355; first compound 2.53 µM): 0.869; relative viability (NCI-H1355; first compound 8 µM): 0.733; relative viability (NCI-H1666; first compound 0.08 µM): 0.749; relative viability (NCI-H1666; first compound 0.8 µM): 0.779; relative viability (NCI-H1666; first compound 2.53 µM): 0.827; relative viability (NCI-H1666; first compound 8 µM): 0.713; relative viability (NCI-H1792; first compound 0.08 µM): 0.507; relative viability (NCI-H1792; first compound 0.8 µM): 0.42; relative viability (NCI-H1792; first compound 2.53 µM): 0.547; relative viability (NCI-H1792; first compound 8 µM): 0.278; relative viability (NCI-H1975; first compound 0.08 µM): 0.887; relative viability (NCI-H1975; first compound 0.8 µM): 0.779; relative viability (NCI-H1975; first compound 2.53 µM): 0.932; relative viability (NCI-H1975; first compound 8 µM): 0.904; relative viability (NCI-H2170; first compound 0.08 µM): 0.569; relative viability (NCI-H2170; first compound 0.8 µM): 0.554; relative viability (NCI-H2170; first compound 2.53 µM): 0.586; relative viability (NCI-H2170; first compound 8 µM): 0.592; relative viability (NCI-H23; first compound 0.08 µM): 0.298; relative viability (NCI-H23; first compound 0.8 µM): 0.257; relative viability (NCI-H23; first compound 2.53 µM): 0.344; relative viability (NCI-H23; first compound 8 µM): 0.274; relative viability (NCI-H2405; first compound 0.08 µM): 0.872; relative viability (NCI-H2405; first compound 0.8 µM): 0.842; relative viability (NCI-H2405; first compound 2.53 µM): 0.909; relative viability (NCI-H2405; first compound 8 µM): 0.863; relative viability (NCI-H3122; first compound 0.08 µM): 0.646; relative viability (NCI-H3122; first compound 0.8 µM): 0.603; relative viability (NCI-H3122; first compound 2.53 µM): 0.609; relative viability (NCI-H3122; first compound 8 µM): 0.671; relative viability (NCI-H322M; first compound 0.08 µM): 0.776; relative viability (NCI-H322M; first compound 0.8 µM): 0.617; relative viability (NCI-H322M; first compound 2.53 µM): 0.75; relative viability (NCI-H322M; first compound 8 µM): 0.774; relative viability (NCI-H358; first compound 0.08 µM): 0.554; relative viability (NCI-H358; first compound 0.8 µM): 0.658; relative viability (NCI-H358; first compound 2.53 µM): 0.711; relative viability (NCI-H358; first compound 8 µM): 0.623; relative viability (NCI-H520; first compound 0.08 µM): 0.39; relative viability (NCI-H520; first compound 0.8 µM): 0.327; relative viability (NCI-H520; first compound 2.53 µM): 0.342; relative viability (NCI-H520; first compound 8 µM): 0.352; relative viability (NCI-H596; first compound 0.08 µM): 0.698; relative viability (NCI-H596; first compound 0.8 µM): 0.707; relative viability (NCI-H596; first compound 2.53 µM): 0.68; relative viability (NCI-H596; first compound 8 µM): 0.762; relative viability (NCI-H647; first compound 0.08 µM): 0.575; relative viability (NCI-H647; first compound 0.8 µM): 0.67; relative viability (NCI-H647; first compound 2.53 µM): 0.705; relative viability (NCI-H647; first compound 8 µM): 0.678; relative viability (NCI-H727; first compound 0.08 µM): 0.757; relative viability (NCI-H727; first compound 0.8 µM): 0.621; relative viability (NCI-H727; first compound 2.53 µM): 0.777; relative viability (NCI-H727; first compound 8 µM): 0.633; relative viability (NCI-H838; first compound 0.08 µM): 0.736; relative viability (NCI-H838; first compound 0.8 µM): 0.83; relative viability (NCI-H838; first compound 2.53 µM): 0.883; relative viability (NCI-H838; first compound 8 µM): 0.766; relative viability (PC-14; first compound 0.08 µM): 0.279; relative viability (PC-14; first compound 0.8 µM): 0.264; relative viability (PC-14; first compound 2.53 µM): 0.303; relative viability (PC-14; first compound 8 µM): 0.26; relative viability (SW 900; first compound 0.08 µM): 1; relative viability (SW 900; first compound 0.8 µM): 0.771; relative viability (SW 900; first compound 2.53 µM): 1.15; relative viability (SW 900; first compound 8 µM): 0.918; relative viability (UMC-11; first compound 0.08 µM): 0.338; relative viability (UMC-11; first compound 0.8 µM): 0.389; relative viability (UMC-11; first compound 2.53 µM): 0.352; relative viability (UMC-11; first compound 8 µM): 0.331
